First: CN(CCc1ccccc1)C(=O)Cn1cc(C=Cc2nnn[nH]2)c2cc(OCc3ccccc3)ccc21
Second: O=C(CCCc1ccccc1)c1cccc(OCc2ccc3ccccc3c2)c1
The melting point of the first is higher: 203 to 205 °C for the first, 75 to 76 °C for the second.

First: CC[C@H](Cn1ncnn1)n1cnc2cc3c(=O)n([C@H](C)Cn4ncnn4)nnc3cc2c1=O
Second: CCCN(CCC)Cc1nnc(-c2ncn3c2CN(C)C(=O)c2c(Cl)cccc2-3)o1
The melting point of the first is lower: 80 to 82 °C for the first, 188 to 195 °C for the second.

First: CCOC(=O)Nc1cc(Oc2ccc3ccccc3c2)c(C#N)cc1F
Second: N#Cc1cccc(COc2ccc3ccccc3c2)c1
The melting point of the first is higher: 132 °C for the first, 60 to 61 °C for the second.

Compared with `O=C1N(Cc2ccc(OCc3ccccc3)cc2)c2ccccc2C12COc1cc3c(cc12)OCCO3` (configuration not stated), `Cc1oc(-c2ccccc2)nc1CCOc1ccc(CC(C)(C(=O)O)c2ccccc2)cc1` (configuration not stated) is higher in melting point: 87 to 89 °C for the first, 178 to 179 °C for the second.

First: CC(C)c1cccc(COCCCO)c1NC(=O)CC1c2ccccc2Oc2ccccc21
Second: CNC(=O)N(c1ccccc1)c1cccc2ccccc12
The melting point of the first is higher: 150 to 151 °C for the first, 146 °C for the second.

First: C=C1C(O)C(CO)OC1n1cc(Cl)c(N)nc1=O (configuration not stated)
Second: CC(C)(C)OC(=O)N1CCC(CNC(=O)c2cc(Cl)c(N)c3c2OCC3)C(O)C1 (configuration not stated)
The melting point of the first is lower: 168 to 170 °C for the first, 218 °C for the second.

First: Cc1ccc(C)c(OCCC(N)C(C)(C)C(=O)O)c1 (configuration not stated)
Second: CCc1cc(C(C)=O)c(O)cc1OCCCCCNC(C)=O
The melting point of the first is lower: 86.1 to 86.9 °C for the first, 115 to 116 °C for the second.

First: CCO/N=C(\C)[C@H]1CC[C@H]2[C@@H]3CC=C4C[C@@H](O)CC[C@]4(C)[C@H]3CC[C@]12C
Second: CCNCC1CCN(c2nc3c(cc2F)c(=O)c(C(=O)O)cn3C2CC2)C1 (configuration not stated)
The melting point of the first is lower: 119 to 121 °C for the first, 268 to 270 °C for the second.

First: CCCN(CCC)C(=O)N1CCc2ccc(S(=O)(=O)NC(=O)NC3CCCCC3)cc2CC1
Second: O=C(NC1CCCCC1)N(C(=O)c1ccccc1[N+](=O)[O-])C1CCCCC1
The melting point of the first is higher: 179 to 180 °C for the first, 134 °C for the second.

Compared with `CCCOC(Cc1ccc(OCc2nc(C(C)(C)C)oc2C)c2ccccc12)C(=O)O` (configuration not stated), `CNC(=O)C(Cc1ccc(OCCc2nc(-c3ccccc3)oc2C)cc1)C(=O)NC` is higher in melting point: 169 to 170 °C for the first, 217 to 219 °C for the second.

First: CC(=O)NCc1cccc2c1C(=O)N(C1CCC(=O)NC1=O)C2=O (configuration not stated)
Second: CC1=CC(c2ccc(F)c(Cl)c2)C2=C(CCCC2=O)N1 (configuration not stated)
The melting point of the first is higher: 177 to 179 °C for the first, 164 to 167 °C for the second.

Compared with `O=C(Nc1ccc2cc(CN3CCCC3)cnc2c1)c1ccc(-c2ccc(F)cc2)cc1`, `O=C(c1ccc(-c2ccc(OCCCN3CCCCC3)cc2)cc1)N1CCCCC1` is lower in melting point: 210 to 212 °C for the first, 122 °C for the second.

First: NC(=O)c1nc(-c2ccc(O)cc2)cs1
Second: CCOc1nc(-c2ccc(Cl)cc2)c(CCC(=O)O)o1
The melting point of the first is higher: 223 to 227 °C for the first, 148 to 149 °C for the second.

First: CCOC(=O)C1=C(C)N=C(SCc2ccc(OC)cc2)N(C(=O)OC(C)C)C1c1cccc(Cl)c1Cl (configuration not stated)
Second: CC1=C(C(=O)OC(C)C)C(c2cccc([N+](=O)[O-])c2)N(C(=O)OC(C)C)C(=S)N1 (configuration not stated)
The melting point of the first is lower: 97 to 99 °C for the first, 138 °C for the second.

Compared with `CCCc1cc(C(O)(CC)CC)ccc1-c1cc(OCc2ccc(CO)c(CO)c2)ccc1C`, `CCOc1cc2cc(CO)c(CO)c(-c3ccnc(Cl)c3)c2cc1OCC` is higher in melting point: 97 °C for the first, 148 to 150 °C for the second.

First: CCc1nc2c(cnn2CC)c(NC2CCOCC2)c1CNC(=O)c1cccc(C(=O)NCc2ccc(OC)c(-c3cccc(CN4CCCNCC4)c3)c2)c1
Second: CC(=O)Nc1ccc(-c2cc(-c3nc4ccccc4c(=O)n3-c3cccc(C)c3)sc2N2CCOCC2)cc1
The melting point of the first is lower: 143 to 147 °C for the first, over 275 °C for the second.

First: COc1ccc2c(c1)C(=O)C(n1ccnc1)CO2 (configuration not stated)
Second: Cc1cccc2c1C(=O)c1cc(CC(=O)O)ccc1OC2
The melting point of the first is lower: 150 to 152 °C for the first, 183 to 185 °C for the second.

First: O=C1NC(=O)c2cc(Nc3ccccc3)c(Nc3ccccc3)cc21
Second: O=C(Nc1ccccc1)N1CCc2cc(S(=O)(=O)N3CC(c4ccccc4)NC3=O)ccc21 (configuration not stated)
The melting point of the first is lower: 205 to 207 °C for the first, 247 to 248 °C for the second.

Compared with `Cn1nc(C(F)(F)F)cc1Oc1cc(C#N)cc(Oc2cc(C(F)(F)F)nn2C)n1`, `Nc1c(SC(F)(F)F)c(C(=O)O)nn1-c1c(Cl)cc(C(F)(F)F)cc1Cl` is higher in melting point: 140 °C for the first, 199 °C for the second.

First: Clc1ccccc1-c1ccc(-c2ccc(C3=CC=CNC3)cc2)n1CNc1ccccn1
Second: FC(F)(F)c1cccc(N(c2ccccc2)c2ccc(-c3ccc(N(c4ccccc4)c4cccc(C(F)(F)F)c4)cc3)cc2)c1
The melting point of the first is higher: 163 to 166 °C for the first, 150 °C for the second.

First: COC(=O)C=Cc1cc(F)cc(Br)c1
Second: COc1ccc(C=CC(=O)NO)cc1OC
The melting point of the first is lower: 95 to 96 °C for the first, 183 to 185 °C for the second.

Compared with `CC1(C)OC(=O)Nc2ccc(/C(=C/C#N)c3ccccc3)cc21`, `COC(=O)C(Oc1cc(O)ccc1C#N)c1ccccc1C` (racemic) is lower in melting point: 205 to 206 °C for the first, 114 to 121 °C for the second.

Compared with `CC1(O)CN(c2c(F)cc3c(=O)c(C(=O)O)cn(C4CC4)c3c2F)C1`, `CC(C)NC(=O)Nc1ccc2c(c1)C(c1ccccc1F)=NCC(=O)N2C` is lower in melting point: 290 to 294 °C for the first, 185 to 188 °C for the second.

Compared with `Cc1ccc2c(c1)S(=O)(=O)c1cc(C)ccc1O2`, `ClCCOc1ccc2c(c1)oc1cc(Cl)ccc12` is lower in melting point: 175 to 176 °C for the first, 105 to 107 °C for the second.

First: CC(=O)NC(COc1ccccc1)C(=O)O (configuration not stated)
Second: COC(=O)[C@H](Cc1ccc(I)cc1)NC(C)=O
The melting point of the first is lower: 90 to 92 °C for the first, 118 to 120 °C for the second.

Compared with `COC(=O)c1nc(NCC(O)CO)cnc1[N+](=O)[O-]` (configuration not stated), `COC(=O)c1c(F)cc(O)cc1F` is higher in melting point: 107 to 109 °C for the first, 178 to 180 °C for the second.

Compared with `Nc1sc2c(c1C(=O)c1ccc3ccccc3c1)CCC2`, `CCc1ccc(-c2c(Cl)c(CCl)nc3sc4c(c23)CCN(C(=O)OCc2ccccc2)C4)cc1` is lower in melting point: 178 to 180 °C for the first, 126 to 128 °C for the second.

Compared with `Cc1cccc(C2CCN(C(=O)Oc3ccccc3)CC2)c1`, `Cc1nn(-c2ccccc2)c(-c2ccc(Cl)cc2)c1CC(=O)O` is higher in melting point: 127 to 130 °C for the first, 174 to 177 °C for the second.

First: CN1CC[C@@H](c2c(O)cc(O)c3c(=O)cc(-c4cccs4)oc23)[C@@H]1CO
Second: CCc1cc(C(=O)c2ccccc2Cl)c(-n2c(CO)nnc2CNC(=O)c2ccc(Cl)c(Cl)c2)s1
The melting point of the first is higher: 218 to 220 °C for the first, 125 to 128 °C for the second.

First: CCCCCCCSC[C@H](N[C@@H](C)C(=O)O)C(=O)OCC
Second: CCCCCCCCCC(=O)Oc1ccc2cc(C(=N)N)ccc2c1
The melting point of the first is lower: 124 to 126 °C for the first, 165 to 168 °C for the second.

First: COCCOc1cc(N(C)S(=O)(=O)c2nccn2C)c2[nH]c(C(=O)O)cc2c1
Second: CCOC(=O)c1cc2cc(Br)ccc2[nH]1
The melting point of the first is higher: 174 to 175 °C for the first, 160 to 164 °C for the second.

First: O=C1NCCN1Cc1ccncc1
Second: Cn1c(=O)n(Cc2cccnc2)c2ccccc21
The melting point of the first is higher: 153 to 155 °C for the first, 90 °C for the second.

First: C#CCCCc1c2c3c(nc(N)c2nn1CCC)CCCC3
Second: CCOCC1COc2c(cc(N)cc2C(F)(F)F)O1 (configuration not stated)
The melting point of the first is higher: 167 to 169 °C for the first, 96 to 98 °C for the second.

Compared with `CN(C)CCCCCCNc1nc2cc(Cl)c(Cl)cc2nc1-c1ccccn1`, `Cc1cnc(NCCc2ccccn2)c(=O)n1NC(=O)CCc1cccc(Cl)c1` is higher in melting point: 88 to 90 °C for the first, 201 to 207 °C for the second.

First: COC1=CC(=O)CC(NC(=O)Nc2ccccc2)C1 (configuration not stated)
Second: COc1ccccc1-c1ccc(C[C@H](NC(=O)c2c(Cl)cccc2Cl)C(=O)O)cc1Cl
The melting point of the first is higher: 183 to 185 °C for the first, 131 °C for the second.

First: CN1C2CCCC1CC(NC(=O)c1cccc3nc(-c4ccc(Cl)cc4)oc13)C2 (configuration not stated)
Second: COc1ccc(-c2nc3cc(OC)cc(-c4ccccc4)c3o2)cc1
The melting point of the first is higher: 193 to 196 °C for the first, 92 °C for the second.

`CCOC(=O)C1=C(C)Nc2nc(N3CCOCC3)nc(N3CCOCC3)c2C1c1ccccc1` (configuration not stated) and `CN(C)C(=O)COC(=O)c1cc(-c2ccccc2)c(=O)n2c1-c1ccccc1C2` cannot be ordered by melting point: 178 °C for the first, 177 to 179 °C for the second.

First: COc1ccc(-c2ccn(-c3ccc4c5c(n(C)c4c3)CN(C(=O)OC(C)(C)C)CC5)c(=O)c2)cc1
Second: Nc1ccc(Oc2c(NCc3ccco3)cc(C(=O)O)cc2S(N)(=O)=O)cc1
The melting point of the first is higher: 306 to 308 °C for the first, 233 to 235 °C for the second.

First: CCOP(=O)(Cc1ccc(C(=O)N2CCc3ccccc32)cc1)OCC
Second: COP(=O)(Cc1ccc(CP(=O)(OC)OC)cc1)OC
The melting point of the first is lower: 93 to 94.5 °C for the first, 106 °C for the second.

Compared with `Cc1onc(-c2cccc(C(F)(F)F)c2)c1CCC(=O)O`, `Cc1cc(C(O)(C(F)(F)F)C(F)(F)F)cc(C)c1NCCC(=O)O` is higher in melting point: 63 to 64 °C for the first, 175 to 176 °C for the second.

First: O=C(N=CNO)c1nccc2c1[nH]c1ccccc12
Second: CCCNC(=O)CSc1nc(-c2ccccc2)c(-c2ccccc2)[nH]1
The melting point of the first is higher: 235 to 240 °C for the first, 183 to 185 °C for the second.

Compared with `CCn1nc(C#N)c(Nc2ccc(F)cc2[N+](=O)[O-])n1`, `N#Cc1c([N+](=O)[O-])ccc(Cl)c1CBr` is lower in melting point: 115 to 116 °C for the first, 89 °C for the second.

Compared with `O=Cc1ccc(C=Cc2ccc(C=O)cc2)cc1`, `O=S(=O)(Cl)C=Cc1ccc(C2CCCCC2)c(Br)c1` is lower in melting point: 169 °C for the first, 93 to 97 °C for the second.

First: Cc1nc(C)c(Cl)c(NCc2ccc(Oc3ccc4ncc([N+](=O)[O-])n4n3)c(OC(F)F)c2)n1
Second: CCCc1c(C(=O)C(C)C)c2ccc(NC(=O)NC)cc2n1Cc1ccccc1Cl
The melting point of the first is higher: 191 to 194 °C for the first, 106 to 108 °C for the second.

Compared with `OC(=S)CC(c1ccc(OCc2ccc3ccccc3n2)cc1)c1ccc(OCc2ccc3ccccc3n2)cc1`, `CC(C)N(CCCCOc1ccc(-c2nnc(CSCCOc3ccccc3)o2)cc1)C(C)C` is lower in melting point: 175 to 180 °C for the first, 42 to 44 °C for the second.

First: CN(C)c1cccc(C(=C2CN(C(c3ccccc3)c3ccccc3)C2)S(C)(=O)=O)c1
Second: CCOc1ccc(-c2ccc(S(=O)(=O)NC(C(=O)O)C3CCN(CC(C)C)CC3)s2)cc1 (configuration not stated)
The melting point of the first is lower: 176 °C for the first, 220 to 225 °C for the second.

First: CCOC(=O)c1c(C)n(-c2ccc(N(CC)CC)cc2)c(C)c(C(=O)OCC)c1=O
Second: CS(=O)(=O)OCCN(CCOS(C)(=O)=O)c1ccc([N+](=O)[O-])c(C(=O)O)c1[N+](=O)[O-]
The melting point of the first is lower: 138 °C for the first, 200 to 210 °C for the second.

First: Cc1c(C(=O)O)cnn1CC(F)(F)F
Second: CCN(CC)CCNC(=O)c1cc(Cl)c(N)cc1OC1OCCO1
The melting point of the first is higher: 188 to 190 °C for the first, 93 to 95 °C for the second.

For `COc1cc2c(cc1OC)CN(CC(O)CC1(c3noc4cc(F)ccc34)CCNCC1)CC2` (configuration not stated), the melting point was 153 to 154 °C.

— a melting point compilation (Tetko et al.; mined from patent text by program, amines drawn as free bases though some values may be those of a salt)
